Data from patent publication US4339442A, “Gynosaponins, their use and a process for preparing the same” (priority 1980, dated 1982).

How the values were obtained:
Type in all cases: cell-based, male wister rats
fat cells [1] = assay: Synthesis of fat from glucose in fat cells; settings: 20 μg/ml; for Power for synthesis of neutral fat from glucose: 37° C., half an hour; for activation at 20 µg/mL: Rattus norvegicus, 0.5 h, none = 100, read-out: Rate of promotion
Description: (§1) Fat tissues were separated from the epididymides of male wister rats weighing 150 to 180 g each, and fat cells were obtained therefrom in accordance with the Rodbell's method [M. Rodbell, J. Biol. Chem., 239, 375 (1964)]. A small section was prepared from 4 g of the fat tissue, and placed in 10 ml. of Krebs-Ringer bicarbonate buffer containing 0.4 g of albumin, 10 mg of collagenase and 5 mg of glucose, and having a pH value of 7.4. It was heated at 37° C. for 50 minutes, and subjected to centrifugal separation at 300 rpm, whereby a floating fat cell layer was separated. Added into the fat cell were 10 ml. of the aforesaid buffer (pH 7.4), and the solution was carefully stirred to wash the fat cell, followed by centrifugal separation at 300 rpm for 30 seconds. This procedure was repeated twice, whereby the fat cells were washed perfectly, and these fat cells were used for the tests.
^14 C-glucose having its carbon atoms marked with radioactivity was reacted upon fat cells, and a Geiger count was read to determine the amount of the glucose participating in the fat synthesis and incorporated into the fat cells as a neutral fat, whereby gynosaponins were tested for their effects on the power of the glucose for fat synthesis.
More specifically, the fat cells obtained by treating with collagenase were suspended in KRB, and 0.35 ml. of the resulting solution containing 100 mg of fat cells was placed into a test tube with 0.1 ml. of each saponin solution containing 20 μg of saponin, 0.5 ml. of a 5% albumin solution in KRB, containing 10 mM glucose and having a pH value of 7.4, and 0.05 ml. of a ^14 C-glucose solution which was a 0.5 μCi KRP solution having a pH value of 7.4 and containing 10 mM glucose. They were heated at 37° C. for half an hour, and after 5 ml. of Dole's extract were added and the whole was shaked for five minutes, 3 ml. of heptane and 2 ml. of water were added, and the whole was shaked for five minutes. 3 ml. of a heptane layer were separated, and after an alkaline ethanol solution (0.5 N sodium hydroxide solution, 50 % ethanol solution) was added in the amount of 3 ml., the whole was shaked for five minutes. Then, 1 ml. of an ethanol layer was separated, and 10 ml. of a toluene scintillation solution were added thereinto, followed by determination according to the method of Skipski et al. [Biochem. Biophys. Acta, 106, 386 (1965)].

fat cells [2] = assay: Decomposition by adrenalin of the fat in the fat cells; settings: adrenalin 1 μg/ml + saponin 20 μg/ml, 37° C., two hours; for inhibition at 20 µg/mL: Rattus norvegicus, 2 h, read-out: Rate of inhibition
Description: A small section was prepared from 4 g of the fat tissue, and placed in 10 ml. of Krebs-Ringer bicarbonate buffer containing 0.4 g of albumin, 10 mg of collagenase and 5 mg of glucose, and having a pH value of 7.4. […] Added into the fat cell were 10 ml. of the aforesaid buffer (pH 7.4), and the solution was carefully stirred to wash the fat cell, followed by centrifugal separation at 300 rpm for 30 seconds. This procedure was repeated twice, whereby the fat cells were washed perfectly, and these fat cells were used for the tests.
The fat cells obtained by treating with collagenase were suspended in Krebs-Ringer phosphate buffer (KRP) having a pH value of 7.4. Placed into a test tube were 0.3 ml. of the solution thus obtained, and containing 100 mg of fat cells, 0.1 ml. of an adrenalin solution containing 1 μg of adrenalin, 0.1 ml. of a saponin solution containing 20 μg of saponin, and 0.5 ml. of a 5% albumin solution in KRP, and having a pH value adjusted to 7.4. […] More specifically, 3 ml. of Dole's extract were placed in the reaction system, and after they were shaked for five minutes, 3 ml. of heptane were dispensed, and 1 ml. of a thymol blue solution was added thereinto. The resulting solution was titrated with a 0.008 N aqueous solution of sodium hydroxide, while it was being stirred with nitrogen, and the amount of the resulting free fatty acid was determined in accordance with a calibration curve.
The rate of inhibition was obtained in accordance with the equation shown at (1) above.

fat cells [3] = assay: Decomposition of the fat in the fat cell by ACTH; settings: ACTH 1 μg/ml + saponin 20 μg/ml, 37° C., two hours; for inhibition at 20 µg/mL: Rattus norvegicus, 2 h, read-out: Rate of inhibition
Description: as §1
The fat cells obtained by treating with collagenase were suspended in Krebs-Ringer bicarbonate buffer (KRB) having a pH value of 7.4. Placed into a test tube were 0.3 ml. of the solution thus obtained (containing 100 mg of fat cells), 0.1 ml. of ACTH solution containing 1 μg of ACTH, 0.1 ml. of each saponin solution containing 500 μg of saponin, and 0.3 ml. of a 5% alubumin solution in KRB, and having a pH value adjusted to 7.4. They were heated at 37° C. for two hours, and the amount of the resulting free fatty acid was determined in accordance with the Dole's method [V. P. Dole, J. Biol. Chem., 35, 150 (1958)].
Namely, 3 ml. of Dole's extract were separated into the reaction system, and 1 ml. of a thymol blue solution was added thereinto. Nitrogen was blown into the resulting solution, and the solution was titrated with a 0.008 N aqueous solution of sodium hydroxide, while it was being stirred. The amount of the resulting free fatty acid was determined in accordance with a calibration curve.
The rate of inhibition against fat decomposition was obtained in accordance with the following equation: [formula] wherein A stands for the amount of the free fatty acid formed by addition of ACTH along in the amount of 1 μg/ml.; and B stands for the amount of the free fatty acid formed by addition of ACTH and saponin in the amount of 1 μg/ml. and 20 μg/ml., respectively.

**Q.** What does the source list for `CC(C)=CCC[C@](C)(O[C@@H]1O[C@H](CO[C@@H]2O[C@@H](C)[C@H](O)[C@@H](O)[C@H]2O)[C@@H](O)[C@H](O)[C@H]1O)[C@H]1CC[C@]2(C)[C@@H]1[C@H](O)C[C@@H]1[C@@]3(C)CC[C@H](O[C@@H]4O[C@H](CO)[C@@H](O)[C@H](O)[C@H]4O)C(C)(C)[C@@H]3CC[C@]12C` [gynosaponin J, 20S-Protopanaxadiol-3-O-β-D-glucopyranoside-20-O-[α-L-rhamnopyranosyl (1→6)-β-D-glucopyranoside]]?
**A.** Power for synthesis of neutral fat from glucose (fat cells [1]): 11,650 cpm/g; activation at 20 µg/mL (fat cells [1]): 54%; inhibition at 20 µg/mL (fat cells [2]): 7%; Free fatty acid formed by decomposition of fat (fat cells [2]): 13.1 μ Eq/g; Free fatty acid formed by decomposition of fat (fat cells [3]): 5.3 μ Eq/g; inhibition at 20 µg/mL (fat cells [3]): 37%

**Q.** With `CC(C)=CCC[C@](C)(O[C@@H]1O[C@H](CO)[C@@H](O)[C@H](O)[C@H]1O)[C@H]1CC[C@]2(C)[C@@H]1[C@H](O)C[C@@H]1[C@@]3(C)CC[C@H](O[C@@H]4O[C@H](CO[C@@H]5O[C@@H](C)[C@H](O)[C@@H](O)[C@H]5O)[C@@H](O)[C@H](O)[C@H]4O)C(C)(C)[C@@H]3CC[C@]12C` [gynosaponin K, 20S-Protopanaxadiol-3-O-[α-L-rhamnopyranosyl (1→6)-β-D-glucopyranoside]-20-O-β-D-glucopyranoside] as the compound, how does the “Power for synthesis of neutral fat from glucose” value (from here on “Power for synthesis”) (fat cells [1]) read?
**A.** 13,600 cpm/g

**Q.** And the activation at 20 µg/mL (fat cells [1])?
**A.** 63%

**Q.** What about the inhibition at 20 µg/mL (fat cells [2]) of the same compound?
**A.** 2%

**Q.** And the “Free fatty acid formed by decomposition of fat” value (from here on “Free fatty acid formed”) (fat cells [2])?
**A.** 13.8 μ Eq/g

**Q.** What about the “Free fatty acid formed” value (fat cells [3]) of the same compound?
**A.** 6.1 μ Eq/g

**Q.** What about the inhibition at 20 µg/mL (fat cells [3]) of the same compound?
**A.** 27%

**Q.** Which results are given for `CC(C)=CCC[C@](C)(O[C@@H]1O[C@H](CO[C@@H]2OC[C@@H](O)[C@H](O)[C@H]2O)[C@@H](O)[C@H](O)[C@H]1O)[C@H]1CC[C@]2(C)[C@@H]1[C@H](O)C[C@@H]1[C@@]3(C)CC[C@H](O)C(C)(C)[C@@H]3CC[C@]12C` [gynosaponin M, 20S-Protopanaxadiol-20-O-[β-D-xylopyranosyl (1→6)-β-D-glucopyranoside]]?
**A.** Power for synthesis of neutral fat from glucose (fat cells [1]): 12,650 cpm/g; activation at 20 µg/mL (fat cells [1]): 59%; inhibition at 20 µg/mL (fat cells [2]): 4%; Free fatty acid formed by decomposition of fat (fat cells [2]): 13.5 μ Eq/g; Free fatty acid formed by decomposition of fat (fat cells [3]): 6.4 μ Eq/g; inhibition at 20 µg/mL (fat cells [3]): 24%

**Q.** `CC(C)=CCC[C@](C)(O[C@@H]1O[C@H](CO[C@@H]2O[C@@H](C)[C@H](O)[C@@H](O)[C@H]2O)[C@@H](O)[C@H](O)[C@H]1O)[C@H]1CC[C@]2(C)[C@@H]1[C@H](O)C[C@@H]1[C@@]3(C)CC[C@H](O)C(C)(C)[C@@H]3CC[C@]12C` [gynosaponin N, 20S-Protopanaxadiol-20-O-[α-L-rhamnopyranosyl (1→6)-β-D-glucopyranoside]] was tested. Which “Power for synthesis” value (fat cells [1]) did it give?
**A.** 9,870 cpm/g

**Q.** What about the activation at 20 µg/mL (fat cells [1]) of the same compound?
**A.** 46%

**Q.** What about the inhibition at 20 µg/mL (fat cells [2]) of the same compound?
**A.** 6%

**Q.** What about the “Free fatty acid formed” value (fat cells [2]) of the same compound?
**A.** 13.3 μ Eq/g

**Q.** And the “Free fatty acid formed” value (fat cells [3])?
**A.** 5.2 μ Eq/g

**Q.** And the inhibition at 20 µg/mL (fat cells [3])?
**A.** 38%

**Q.** `CC(=CCCC(C)(OC1OC(COC2OC(C)C(O)C(O)C2O)C(O)C(O)C1O)C1CCC2(C)C1C(O)CC1C3(C)CCC(OC4OC(CO)C(O)C(O)C4OC4OC(CO)C(O)C(O)C4O)C(C)(C)C3CCC12C)CO` [gynosaponin P, 20S,26-Hydroxyprotopanaxadiol-3-O-[β-D-glucopyranosyl (1→2)-β-D-glucopyranoside]-20-O-[α-L-rhamnopyranosyl (1→6)-β-D-glucopyranoside]] was tested. Which “Power for synthesis” value (fat cells [1]) did it give?
**A.** 8,165 cpm/g

**Q.** What about the activation at 20 µg/mL (fat cells [1]) of the same compound?
**A.** 38%

**Q.** What about the inhibition at 20 µg/mL (fat cells [2]) of the same compound?
**A.** 10%

**Q.** What about the “Free fatty acid formed” value (fat cells [2]) of the same compound?
**A.** 12.7 μ Eq/g

**Q.** And the “Free fatty acid formed” value (fat cells [3])?
**A.** 6.6 μ Eq/g

**Q.** What about the inhibition at 20 µg/mL (fat cells [3]) of the same compound?
**A.** 21%

**Q.** How did the “Power for synthesis” value (fat cells [1]) turn out when `CC(C)=CCC[C@](C)(O[C@@H]1O[C@H](CO[C@@H]2OC[C@@H](O)[C@H](O)[C@H]2O)[C@@H](O)[C@H](O)[C@H]1O)[C@H]1CC[C@]2(C)[C@@H]1[C@H](O)C[C@@H]1[C@@]3(C)CC[C@H](O[C@@H]4O[C@H](CO)[C@@H](O)[C@H](O)[C@H]4O[C@@H]4OC[C@@H](O)[C@H](O)[C@H]4O)C(C)(C)[C@@H]3CC[C@]12C` [gynosaponin Q, 20S-Protopanaxadiol-3-O-[β-D-xylopyranosyl (1→2)-β-D-glucopyranoside]-20-O-[β-D-xylopyranosyl (1→6)-β-D-glucopyranoside]] was run?
**A.** 11,620 cpm/g

**Q.** What about the activation at 20 µg/mL (fat cells [1]) of the same compound?
**A.** 54%

**Q.** And the inhibition at 20 µg/mL (fat cells [2])?
**A.** 4%

**Q.** And the “Free fatty acid formed” value (fat cells [2])?
**A.** 13.5 μ Eq/g

**Q.** And the “Free fatty acid formed” value (fat cells [3])?
**A.** 5.8 μ Eq/g

**Q.** And the inhibition at 20 µg/mL (fat cells [3])?
**A.** 31%

**Q.** For `CC(C)=CCC[C@](C)(O[C@@H]1O[C@H](CO[C@@H]2O[C@@H](C)[C@H](O)[C@@H](O)[C@H]2O)[C@@H](O)[C@H](O)[C@H]1O)[C@H]1CC[C@]2(C)[C@@H]1[C@H](O)C[C@@H]1[C@@]3(C)CC[C@H](O[C@@H]4O[C@H](CO)[C@@H](O)[C@H](O)[C@H]4O[C@@H]4OC[C@@H](O)[C@H](O)[C@H]4O)C(C)(C)[C@@H]3CC[C@]12C` [gynosaponin R, 20S-Protopanaxadiol-3-O-[β-D-xylopyranosyl (1→2)-β-D-glucopyranoside]-20-O-[α-L-rhamnopyranosyl (1→6)-β-D-glucopyranoside]], which “Power for synthesis” value (fat cells [1]) is on record?
**A.** 12,600 cpm/g

**Q.** What about the activation at 20 µg/mL (fat cells [1]) of the same compound?
**A.** 59%

**Q.** And the inhibition at 20 µg/mL (fat cells [2])?
**A.** 1%

**Q.** And the “Free fatty acid formed” value (fat cells [2])?
**A.** 14.0 μ Eq/g

**Q.** And the “Free fatty acid formed” value (fat cells [3])?
**A.** 6.2 μ Eq/g

**Q.** What about the inhibition at 20 µg/mL (fat cells [3]) of the same compound?
**A.** 26%

**Q.** What does the source list for `CC(C)=CCC[C@](C)(O[C@@H]1O[C@H](CO[C@@H]2O[C@H](CO)[C@@H](O)[C@H](O)[C@H]2O)[C@@H](O)[C@H](O)[C@H]1O)[C@H]1CC[C@]2(C)[C@@H]1[C@H](O)C[C@@H]1[C@@]3(C)CC[C@H](O[C@@H]4O[C@H](CO)[C@@H](O)[C@H](O)[C@H]4O)C(C)(C)[C@@H]3CC[C@]12C` [gynosaponin S, 20S-Protopanaxadiol-3-O-β-D-glucopyranoside-20-O-[β-D-glucopyranosyl (1→6)-β-D-glucopyranoside]]?
**A.** Power for synthesis of neutral fat from glucose (fat cells [1]): 10,100 cpm/g; activation at 20 µg/mL (fat cells [1]): 47%; inhibition at 20 µg/mL (fat cells [2]): 4%; Free fatty acid formed by decomposition of fat (fat cells [2]): 13.5 μ Eq/g; Free fatty acid formed by decomposition of fat (fat cells [3]): 5.4 μ Eq/g; inhibition at 20 µg/mL (fat cells [3]): 36%
